Drawing on ChEMBL document CHEMBL3244037, “6-Aryl-4H-s-triazolo[4,3-a][1,4]benzodiazepines. Influence of 1-substitution on pharmacological activity” (J Med Chem, 1979), this text covers ED50 for two molecules.

Each structure is given as a SMILES string.

In assay [1] the test system is Mus musculus. The experiment in a line: Reduction of hypoxic stress in ip dosed albino CF1 mouse assessed as prolongation of hypoxic survival time. It counts as functional.
Assay [2] concerns Mus musculus. The experiment in a line: Inhibition of apomorphine-induced cage climbing in ip dosed albino CF1 mouse compound administered prior to challenge measured for 5 mins after 5 mins of challenge. It counts as functional.
Assay [3] has as its system Mus musculus. The experiment in a line: Potentiation of apomorphine-induced gnawing in ip dosed albino CF1 mouse. It is filed as organism-based.
Assay [4] concerns Mus musculus. Nature of the assay: Hypothermic activity in ip dosed albino CF1 mouse assessed as effect on body temperature measured after 45 mins. It is filed as functional. The note with it: 0.75 h.
In assay [5] the test system is Mus musculus. Nature of the assay: […] activity in ip dosed albino CF1 mouse assessed as potentiation of gamma-butyrolactone-induced sleep. It is filed as functional.
Assay [6] concerns Mus musculus. The experiment in a line: Inhibition of amphetamine aggregation toxicity in ip dosed albino CF1 mouse compound administered 1 hr prior to challenge measured after 2 hrs. It counts as functional.
Assay [7] deals with Mus musculus. Nature of the assay: Inhibition of oxotremorine-induced hypothermia in ip dosed albino CF1 mouse. It counts as functional.
Assay [8] deals with Mus musculus. Nature of the assay: Anticonvulsant activity in ip dosed albino CF1 mouse assessed as inhibition of bicucullin-induced tonic extensor convulsions. It is filed as functional.
In assay [9] the test system is Mus musculus. The experiment in a line: Potentiation of yohimbine toxicity in ip dosed aggregated albino CF1 mouse. It counts as organism-based.
Assay [10] has as its system Mus musculus. Nature of the assay: Anticonvulsant activity in ip dosed albino CF1 mouse assessed as protection against pentylenetetrazole-induced clonic convulsions. It is filed as functional.

Regarding `Cc1nnc2n1-c1ccc(Cl)cc1C(c1ccccc1)=NC2` [ALPRAZOLAM], the ED50 is 0.2 mg/kg with Mus musculus [1]; over 50 mg/kg with Mus musculus [2]; over 50 mg/kg in the assay with Mus musculus [3]; over 50 mg/kg with Mus musculus [4]; 0.08 mg/kg in the assay with Mus musculus [5]; over 50 mg/kg in the assay on Mus musculus [6]. The ED50 in the assay on Mus musculus [7] is over 50 mg/kg; with Mus musculus [8], 0.2 mg/kg; in the assay with Mus musculus [9], over 50 mg/kg; in the assay on Mus musculus [10], 0.1 mg/kg.
In the case of `CN1C(=O)CN=C(c2ccccc2)c2cc(Cl)ccc21` [DIAZEPAM], the ED50 in the assay with Mus musculus [1] is 0.2 mg/kg; with Mus musculus [2] it was over 50 mg/kg; in the assay on Mus musculus [3] it was over 50 mg/kg; with Mus musculus [4] it was 14.9 mg/kg; in the assay with Mus musculus [5] it was 0.035 mg/kg; in the assay on Mus musculus [6], over 50 mg/kg. Also, the ED50 with Mus musculus [7] was over 50 mg/kg; with Mus musculus [8], 2.6 mg/kg; in the assay on Mus musculus [9], over 50 mg/kg; in the assay on Mus musculus [10], 0.1 mg/kg.

Broadly, the ED50 is the dose at which the effect has come halfway, by size or by number of responders.
